Assay results as given in ChEMBL document CHEMBL1773066, “Design, synthesis, biological activity, and ADME properties of pyrazolo[3,4-d]pyrimidines active in hypoxic human leukemia cells: a lead optimization study” (J Med Chem, 2011).
Values after ≈ are worked out from the molar mass of the structure shown. Active and inactive are the calls of the source. No cut-off for these calls is given here.

Assays:
[1] = Metabolic stability in human liver microsomes assessed as parent compound remaining after 60 mins by LC-MS analysis; format: ADME, Microsome; conditions: read-out: Stability
[2] = target: T1, Signal transducer and activator of transcription 5A (Homo sapiens) (UniProt P42229); assay: Inhibition of STAT5 phosphorylation in human MEG-01 cells under normoxic condition after 3 hrs by Western blotting; format: cell-based
T1 sequence (whole entry): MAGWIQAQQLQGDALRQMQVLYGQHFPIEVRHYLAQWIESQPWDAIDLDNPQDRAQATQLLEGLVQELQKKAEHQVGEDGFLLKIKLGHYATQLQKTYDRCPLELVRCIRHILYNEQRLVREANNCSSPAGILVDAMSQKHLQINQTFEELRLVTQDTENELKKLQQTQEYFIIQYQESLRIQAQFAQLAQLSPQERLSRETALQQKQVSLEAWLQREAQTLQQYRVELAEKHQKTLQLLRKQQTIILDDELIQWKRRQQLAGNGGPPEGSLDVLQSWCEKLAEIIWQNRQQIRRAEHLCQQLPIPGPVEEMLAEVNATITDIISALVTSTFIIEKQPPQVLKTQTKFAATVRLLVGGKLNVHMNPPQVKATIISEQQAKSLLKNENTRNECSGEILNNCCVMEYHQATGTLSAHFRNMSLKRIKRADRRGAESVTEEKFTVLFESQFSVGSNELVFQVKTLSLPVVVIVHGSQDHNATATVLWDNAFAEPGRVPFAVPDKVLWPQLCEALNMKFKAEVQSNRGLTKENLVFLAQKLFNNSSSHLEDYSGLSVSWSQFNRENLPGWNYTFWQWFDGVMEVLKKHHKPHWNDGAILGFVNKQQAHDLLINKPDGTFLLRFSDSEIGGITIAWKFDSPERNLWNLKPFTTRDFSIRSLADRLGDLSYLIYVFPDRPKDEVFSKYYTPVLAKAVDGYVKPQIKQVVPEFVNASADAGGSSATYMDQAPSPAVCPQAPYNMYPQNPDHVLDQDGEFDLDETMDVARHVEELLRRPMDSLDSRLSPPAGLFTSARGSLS

[3] = target: T1, Signal transducer and activator of transcription 5A (Homo sapiens); assay: Inhibition of STAT5 phosphorylation in human KU812 cells under normoxic condition after 3 hrs by Western blotting; format: cell-based
[4] = target: T1, Signal transducer and activator of transcription 5A (Homo sapiens); assay: Inhibition of STAT5 phosphorylation in human K562 cells under normoxic condition after 3 hrs by Western blotting; format: cell-based
[5] = target: T1, Signal transducer and activator of transcription 5A (Homo sapiens); assay: Inhibition of STAT5 phosphorylation in human MEG-01 cells under hypoxic condition after 3 hrs by Western blotting; format: cell-based
MEG-01 [6] = assay: cells; conditions: Homo sapiens, MEG-01, 72 h
Description: Antiproliferative activity against human MEG01 cells under normoxic condition after 72 hrs by using CyQUANT GR dye

[7] = Solubility of the compound in water at pH 7.4; format: physicochemical
[8] = target: T1, Signal transducer and activator of transcription 5A (Homo sapiens); assay: Inhibition of STAT5 phosphorylation in human KU812 cells under hypoxic condition after 3 hrs by Western blotting; format: cell-based
[9] = target: T1, Signal transducer and activator of transcription 5A (Homo sapiens); assay: Inhibition of STAT5 phosphorylation in human K562 cells under hypoxic condition after 3 hrs by Western blotting; format: cell-based
K562 [10] = assay: cells; conditions: Homo sapiens, K562, 72 h
Description: Antiproliferative activity against human K562 cells under normoxic condition after 72 hrs by using CyQUANT GR dye

cells [11] = conditions: Homo sapiens, KU812, 72 h
Description: Antiproliferative activity against human KU812 cells under normoxic condition after 72 hrs by using CyQUANT GR dye

MEG-01 [12] = assay: cells; conditions: Homo sapiens, MEG-01, 72 h; remark: listed apart in the source
Description: Antiproliferative activity against human MEG01 cells under hypoxic condition after 72 hrs by using CyQUANT GR dye

K562 [13] = assay: Induction of apoptosis in human K562 cells assessed as caspase-3 activity at 10 uM under hypoxic condition after 72 hrs by fluorescence microplate reader; format: functional, cell-based
K562 [14] = assay: Induction of apoptosis in human K562 cells assessed as caspase-3 activity at 10 uM under normoxic condition after 72 hrs by fluorescence microplate reader; format: functional, cell-based
cells [15] = conditions: Homo sapiens, KU812, 72 h; remark: listed apart in the source
Description: Antiproliferative activity against human KU812 cells under hypoxic condition after 72 hrs by using CyQUANT GR dye

K562 [16] = assay: Inhibition of carbonic anhydrase 9 mRNA expression in human K562 cells under normoxic condition at 10 uM after 72 hrs by quantitative RT-PCR analysis; format: functional, cell-based
[17] = Apparent permeability of the compound at pH 7.4 by PAMPA assay; format: ADME
[18] = target: Tyrosine-protein kinase ABL1 (Homo sapiens, UniProt P00519)
Chain of Tyrosine-protein kinase ABL1 (P00519 whole entry): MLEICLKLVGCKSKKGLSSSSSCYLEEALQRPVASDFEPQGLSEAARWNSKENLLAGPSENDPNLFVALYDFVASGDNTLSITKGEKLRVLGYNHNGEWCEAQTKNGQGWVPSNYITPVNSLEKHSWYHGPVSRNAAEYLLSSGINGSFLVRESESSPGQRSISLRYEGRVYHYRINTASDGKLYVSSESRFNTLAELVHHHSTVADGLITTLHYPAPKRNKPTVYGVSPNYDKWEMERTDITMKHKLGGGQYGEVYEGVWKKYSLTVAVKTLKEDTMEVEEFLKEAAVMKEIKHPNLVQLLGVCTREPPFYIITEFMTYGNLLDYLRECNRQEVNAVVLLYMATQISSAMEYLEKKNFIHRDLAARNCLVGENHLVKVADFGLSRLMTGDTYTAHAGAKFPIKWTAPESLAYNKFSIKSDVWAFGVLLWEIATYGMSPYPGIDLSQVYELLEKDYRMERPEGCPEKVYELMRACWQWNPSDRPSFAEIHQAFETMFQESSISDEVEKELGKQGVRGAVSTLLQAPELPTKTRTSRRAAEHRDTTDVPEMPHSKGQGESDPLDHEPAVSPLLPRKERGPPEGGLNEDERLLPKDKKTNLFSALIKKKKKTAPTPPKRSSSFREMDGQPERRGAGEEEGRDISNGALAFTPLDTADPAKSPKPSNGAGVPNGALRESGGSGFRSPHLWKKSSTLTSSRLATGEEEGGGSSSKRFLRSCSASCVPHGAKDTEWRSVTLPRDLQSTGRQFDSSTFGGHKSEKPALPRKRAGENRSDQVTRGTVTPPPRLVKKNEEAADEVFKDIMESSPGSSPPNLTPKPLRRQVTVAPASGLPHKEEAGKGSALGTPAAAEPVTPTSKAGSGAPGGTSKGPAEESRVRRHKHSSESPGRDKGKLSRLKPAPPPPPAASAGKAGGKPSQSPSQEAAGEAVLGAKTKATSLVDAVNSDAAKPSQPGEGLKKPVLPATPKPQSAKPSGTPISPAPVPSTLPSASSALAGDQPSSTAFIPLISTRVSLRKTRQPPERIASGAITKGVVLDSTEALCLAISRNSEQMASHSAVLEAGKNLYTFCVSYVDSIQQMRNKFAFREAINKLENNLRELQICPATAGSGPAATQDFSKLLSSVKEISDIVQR
Description: Inhibition of human recombinant c-Abl by filter-binding assay

[19] = target: T2, Proto-oncogene tyrosine-protein kinase Src (Homo sapiens, UniProt P12931)
T2 sequence (P12931 2-536 limits assumed): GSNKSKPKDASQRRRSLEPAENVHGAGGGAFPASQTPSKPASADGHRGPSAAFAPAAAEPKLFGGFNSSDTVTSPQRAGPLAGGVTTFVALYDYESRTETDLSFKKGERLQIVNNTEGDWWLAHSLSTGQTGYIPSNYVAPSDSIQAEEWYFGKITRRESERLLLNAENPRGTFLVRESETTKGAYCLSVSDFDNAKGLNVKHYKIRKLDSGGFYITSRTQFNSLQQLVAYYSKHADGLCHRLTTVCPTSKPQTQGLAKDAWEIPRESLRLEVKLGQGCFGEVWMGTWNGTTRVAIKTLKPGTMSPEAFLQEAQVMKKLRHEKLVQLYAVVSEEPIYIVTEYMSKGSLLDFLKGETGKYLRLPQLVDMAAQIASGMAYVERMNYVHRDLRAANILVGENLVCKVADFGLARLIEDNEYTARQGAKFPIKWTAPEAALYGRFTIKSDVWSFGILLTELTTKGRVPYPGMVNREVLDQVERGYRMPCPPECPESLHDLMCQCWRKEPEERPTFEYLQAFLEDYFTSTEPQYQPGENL
Description: (§1) Inhibition of human recombinant c-Src by filter-binding assay

K562 [20] = assay: Induction of apoptosis in human K562 cells assessed as caspase-3 mediated cleavage of PARP level at 10 uM after 72 hrs under hypoxic condition by immunoblot analysis; format: functional, cell-based
K562 [21] = assay: cells; conditions: Homo sapiens, K562, 72 h; remark: listed apart in the source
Description: Antiproliferative activity against human K562 cells under hypoxic condition after 72 hrs by using CyQUANT GR dye

K562 [22] = assay: Inhibition of carbonic anhydrase 9 mRNA expression in human K562 cells under hypoxic condition at 10 uM after 72 hrs by quantitative RT-PCR analysis; format: functional, cell-based
K562 [23] = assay: Induction of HIF1alpha expression in human K562 cells under hypoxic condition assessed as HIF1alpha accumulation after 3 hrs by Western blotting; format: functional, cell-based
[24] = target: T2, Proto-oncogene tyrosine-protein kinase Src; remark: listed apart in the source
Description: as §1

[25] = Cytotoxicity against mouse BA/F3 cells expressing p210Bcr-Abl Y253F mutant; format: functional; conditions: BaF3, read-out: LD50 (the source's name)
[26] = Cytotoxicity against mouse BA/F3 cells expressing wild type p210Bcr-Abl; format: functional; conditions: BaF3, read-out: LD50 (the source's name)
[27] = Cytotoxicity against mouse BA/F3 cells expressing p210Bcr-Abl T315I mutant; format: functional; conditions: BaF3, read-out: LD50 (the source's name)
[28] = Cytotoxicity against mouse BA/F3 cells expressing p210Bcr-Abl E255K mutant; format: functional; conditions: BaF3, read-out: LD50 (the source's name)

Compound	remaining at 1 h [1]	inhibition [2]	inhibition [3]	inhibition [4]	inhibition [5]	IC50 (MEG-01 [6])	solubility [7]	inhibition [8]	inhibition [9]	IC50 (K562 [10])	IC50 (cells [11])	IC50 (MEG-01 [12])	Papp [17]	IC50 (K562 [21])	other results
Clc1cccc(Nc2nc(SCCN3CCOCC3)nc3c2cnn3CC(Cl)c2ccccc2)c1 (stereo not drawn)	95%	Active	Active	Active	Active	6.1 µM	0.1 µg/mL (≈ 0.189 µM)	Active	Active	4.5 µM					
CS(=O)(=O)c1nc(NCc2ccccc2)c2cnn(CC(Cl)c3ccccc3)c2n1 (stereo not drawn)						41.4 µM				35.8 µM	36.1 µM				
Clc1ccc(C(Cl)Cn2ncc3c(NCc4ccccn4)ncnc32)cc1 (stereo not drawn)						16.6 µM				30.6 µM	31.4 µM				
Clc1cccc(Nc2nc(N3CCOCC3)nc3c2cnn3CC(Cl)c2ccccc2)c1 (stereo not drawn)	90%	Active	Active	Active	Active	7.7 µM	0.13 µg/mL (≈ 0.277 µM)	Active	Active	12.2 µM	2.2 µM	15 µM	14.8 ×10⁻⁶ cm/s	4.6 µM	Activity (K562 [13]): Active; Activity (K562 [14]): Active; IC50 (cells [15]): 16.1 µM; inhibition (K562 [16]): Active; Ki [18]: 0.39 µM; Ki [19]: 7.6 µM; Activity (K562 [20]): Active; inhibition (K562 [22]): Active; Activity (K562 [23]): inactive
ClC(Cn1ncc2c(NCCc3ccccc3)nc(SCCN3CCOCC3)nc21)c1ccccc1 (stereo not drawn)															Ki [24]: Not Active
ClC(Cn1ncc2c(NCc3ccccc3)nc(SCCN3CCOCC3)nc21)c1ccccc1 (stereo not drawn)	95%	Active	Active		Active	23.7 µM	1.2 µg/mL (≈ 2.36 µM)	Active		3.1 µM		19.7 µM	9.1 ×10⁻⁶ cm/s	5.1 µM	Ki [18]: 0.09 µM; Ki [19]: 2.9 µM
Fc1ccc(CNc2ncnc3c2cnn3CC(Cl)c2ccc(Cl)cc2)cc1 (stereo not drawn)	94%	Active	Active	Active	Active	6.2 µM	< 0.04 µg/mL	Active	Active	9.2 µM	8.1 µM	6.1 µM		2.8 µM	Activity (K562 [13]): Active; Activity (K562 [14]): Active; IC50 (cells [15]): 13.3 µM; CC50 [25]: 0.7 µM; CC50 [26]: 0.7 µM; CC50 [27]: 0.7 µM; Activity (K562 [20]): Active; Activity (K562 [23]): inactive; CC50 [28]: 0.7 µM
Fc1ccc(C(Cl)Cn2ncc3c(NCc4ccccn4)ncnc32)cc1 (stereo not drawn)						23.8 µM				37.5 µM	40.6 µM				
Fc1ccc(C(Cl)Cn2ncc3c(NCc4ccncc4)ncnc32)cc1 (stereo not drawn)						37.4 µM				36.5 µM	56.4 µM				
CC(Cn1ncc2c(Nc3cccc(Cl)c3)ncnc21)c1ccccc1 (stereo not drawn)	75%						< 0.04 µg/mL						13.5 ×10⁻⁶ cm/s		
OCCNc1nc(NCCc2ccccc2)c2cnn(/C=C\c3ccccc3)c2n1	84%					12.9 µM	0.4 µg/mL (≈ 0.999 µM)			2.3 µM		34 µM	2.6 ×10⁻⁶ cm/s	8.1 µM	Ki [18]: 0.22 µM; Ki [19]: 2.4 µM
Fc1ccc(CNc2ncnc3c2cnn3CC(Cl)c2ccc(F)cc2)cc1 (stereo not drawn)	82%						< 0.04 µg/mL						11 ×10⁻⁶ cm/s		
Clc1ccc(C(Cl)Cn2ncc3c(NCc4ccncc4)ncnc32)cc1 (stereo not drawn)	90%	Active	Active	Active	Active	14.6 µM	12.3 µg/mL (≈ 30.8 µM)	Active	Active	12.7 µM	10.1 µM	43.5 µM	5.4 ×10⁻⁶ cm/s	20.4 µM	IC50 (cells [15]): > 100 µM; Ki [18]: 0.66 µM; Ki [19]: 3.9 µM; Activity (K562 [23]): inactive
ClC(Cn1ncc2c(Nc3ccccc3)nc(SCCN3CCOCC3)nc21)c1ccccc1 (stereo not drawn)		Active	Active	Active	Active			Active	Active	2.2 µM			10 ×10⁻⁶ cm/s	4.7 µM	
